In patent US20240228489A1, “POSITIVE ALLOSTERIC MODULATORS OF THE MUSCARINIC ACETYLCHOLINE RECEPTOR M1” (Vanderbilt University, priority 2021, published 2024):

Tests used:
human mAChR M1 [1] = molecular target: T1, human mAChR M1 (Homo sapiens, UniProt P11229); assay: mAChR M1 cell-based functional assay (calcium mobilization), PAM mode: increase in the EC20 acetylcholine response
T1 sequence (P11229 1-460): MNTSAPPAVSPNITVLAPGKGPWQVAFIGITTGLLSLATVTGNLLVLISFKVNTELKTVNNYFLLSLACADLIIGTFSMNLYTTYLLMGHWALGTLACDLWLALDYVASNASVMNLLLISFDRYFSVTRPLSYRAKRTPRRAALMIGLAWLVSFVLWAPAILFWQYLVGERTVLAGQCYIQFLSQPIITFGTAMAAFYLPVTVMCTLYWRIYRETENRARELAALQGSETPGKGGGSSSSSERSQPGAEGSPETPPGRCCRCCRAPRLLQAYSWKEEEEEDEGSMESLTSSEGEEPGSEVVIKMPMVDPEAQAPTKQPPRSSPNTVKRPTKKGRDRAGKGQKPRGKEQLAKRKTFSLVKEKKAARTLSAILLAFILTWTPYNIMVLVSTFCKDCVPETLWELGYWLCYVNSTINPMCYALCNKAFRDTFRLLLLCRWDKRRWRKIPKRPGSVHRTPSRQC
How it was run: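 PAM readout is the concentration-dependent rise in the EC20 acetylcholine calcium signal, fitted to a four-parameter logistic (EC50, Emax). Compounds were preincubated from 4 s before ACh at 144 s (EC20) and 230 s (EC80). hM1-expressing CHO-K1 cells loaded with Fluo-4, FDSS ratio read.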

human mAChR M1 [2] = molecular target: T1, human mAChR M1; assay: mAChR M1 cell-based functional assay (calcium mobilization), agonist mode: compound alone, Emax relative to acetylcholine maximum; conditions: for Agonist Activity Human M1 EC50 / EC50: human mAChR M1; for Emax: relative to the maximum for acetylcholine
How it was run: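 Agonist activity is the concentration-dependent rise in intracellular calcium (Fluo-4, 1 Hz read) after compound addition, measured before any acetylcholine was added, in stable hM1 CHO-K1 cells. Curves were 11-point, 1:3 dilutions fitted by four-parameter logistic. Emax is given as a fraction of maximal acetylcholine response.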

| Structure (SMILES) | EC50 (human mAChR M1 [1]) | Emax (human mAChR M1 [1]) | Agonist Activity Human M1 EC50 (human mAChR M1 [2]) | Emax (human mAChR M1 [2]) | EC50 (human mAChR M1 [2]) |
| --- | --- | --- | --- | --- | --- |
| [2H]C([2H])([2H])Oc1cc(-c2cc(F)c(CN3C(=O)c4cccnc4C3([2H])[2H])c(F)c2)c2cnn(C([2H])([2H])[2H])c2c1 [Compound 88, 6-(2,6-difluoro-4-(6-(methoxy-d3)-1-(methyl-d3)-1H-indazol-4-yl)benzyl)-6,7-dihydro-5H-pyrrolo[3,4-b]pyridin-5-one-7,7-d2] | 2.7 µM | 37% | Inactive | 2% | – |
| [2H]C1([2H])c2ncccc2C(=O)N1Cc1c(F)cc(-c2cc(Cl)c3nn(C)cc3c2)cc1F [Compound 89, 6-(4-(7-chloro-2-methyl-2H-indazol-5-yl)-2,6-difluorobenzyl)-6,7-dihydro-5H-pyrrolo[3,4-b]pyridin-5-one-7,7-d2] | 0.088 µM | 46% | Inactive | 1% | – |
| [2H]C1([2H])c2ncccc2C(=O)N1Cc1c(F)cc(-c2cc(OC)cc3nn(C)cc23)cc1F [Compound 90, 6-(2,6-difluoro-4-(6-methoxy-2-methyl-2H-indazol-4-yl)benzyl)-6,7-dihydro-5H-pyrrolo[3,4-b]pyridin-5-one-7,7-d2] | 1.7 µM | 72% | Inactive | 2% | – |
| [2H]C1([2H])c2ncccc2C(=O)N1Cc1c(F)cc(-c2cn(C)c(=O)c3nn(C([2H])([2H])[2H])cc23)cc1F [Compound 91, 4-(3,5-difluoro-4-((5-oxo-5,7-dihydro-6H-pyrrolo[3,4-b]pyridin-6-yl-7,7-d2)methyl)phenyl)-6-methyl-2-(methyl-d3)-2,6-dihydro-7H-pyrazolo[3,4-c]pyridin-7-one] | 0.718 µM | 84% | – | 22% | 7.74 µM |
| [2H]C1([2H])c2ncccc2C(=O)N1Cc1c(F)cc(-c2cn(C)c(=O)c3c2cnn3C([2H])([2H])[2H])cc1F [Compound 92, 4-(3,5-difluoro-4-((5-oxo-5,7-dihydro-6H-pyrrolo[3,4-b]pyridin-6-yl-7,7-d2)methyl)phenyl)-6-methyl-1-(methyl-d3)-1,6-dihydro-7H-pyrazolo[3,4-c]pyridin-7-one] | 2.4 µM | 54% | Inactive | 2% | – |
| [2H]C([2H])([2H])Oc1ccc(-c2cc(F)c(CN3C(=O)c4cccnc4C3([2H])[2H])c(F)c2)c2cn(C)nc12 [Compound 93, 6-(2,6-difluoro-4-(7-(methoxy-d3)-2-methyl-2H-indazol-4-yl)benzyl)-6,7-dihydro-5H-pyrrolo[3,4-b]pyridin-5-one-7,7-d2] | 0.131 µM | 76% | – | 21% | 3.3 µM |
| [2H]C([2H])([2H])Oc1ccc(-c2cc(F)c(CN3C(=O)c4cccnc4C3([2H])[2H])c(F)c2)c2cn(C([2H])([2H])[2H])nc12 [Compound 94, 6-(2,6-difluoro-4-(7-(methoxy-d3)-2-(methyl-d3)-2H-indazol-4-yl)benzyl)-6,7-dihydro-5H-pyrrolo[3,4-b]pyridin-5-one-7,7-d2] | 0.139 µM | 76% | – | 19% | 3.54 µM |
| [2H]C([2H])([2H])Oc1ccc(-c2cc(F)c(CN3C(=O)c4cccnc4C3([2H])[2H])c(F)c2)c2cnn(C([2H])([2H])[2H])c12 [Compound 95, 6-(2,6-difluoro-4-(7-(methoxy-d3)-1-(methyl-d3)-1H-indazol-4-yl)benzyl)-6,7-dihydro-5H-pyrrolo[3,4-b]pyridin-5-one-7,7-d2] | 1.4 µM | 72% | Inactive | 3% | – |
| [2H]C1([2H])c2ncccc2C(=O)N1Cc1c(F)cc(-c2ccc(OCC)c3nn(C)cc23)cc1F [Compound 96, 6-(4-(7-ethoxy-2-methyl-2H-indazol-4-yl)-2,6-difluorobenzyl)-6,7-dihydro-5H-pyrrolo[3,4-b]pyridin-5-one-7,7-d2] | 0.211 µM | 80% | – | 26% | 7.52 µM |
| [2H]C1([2H])c2ncccc2C(=O)N1Cc1c(F)cc(-c2ccc(OCC)c3nn(C([2H])([2H])[2H])cc23)cc1F [Compound 97, 6-(4-(7-ethoxy-2-(methyl-d3)-2H-indazol-4-yl)-2,6-difluorobenzyl)-6,7-dihydro-5H-pyrrolo[3,4-b]pyridin-5-one-7,7-d2] | 0.164 µM | 88% | – | 25% | 5.94 µM |
| [2H]C1([2H])c2ncccc2C(=O)N1Cc1c(F)cc(-c2ccc(OC(C)C)c3nn(C)cc23)cc1F [Compound 98, 6-(2,6-difluoro-4-(7-isopropoxy-2-methyl-2H-indazol-4-yl)benzyl)-6,7-dihydro-5H-pyrrolo[3,4-b]pyridin-5-one-7,7-d2] | 0.286 µM | 76% | – | 21% | 8.39 µM |
| [2H]C1([2H])c2ncccc2C(=O)N1Cc1c(F)cc(-c2ccc(OC(C)C)c3nn(C([2H])([2H])[2H])cc23)cc1F [Compound 99, 6-(2,6-difluoro-4-(7-isopropoxy-2-(methyl-d3)-2H-indazol-4-yl)benzyl)-6,7-dihydro-5H-pyrrolo[3,4-b]pyridin-5-one-7,7-d2] | 0.285 µM | 83% | – | 25% | 5.8 µM |
| [2H]C1([2H])c2ncccc2C(=O)N1Cc1c(F)cc(-c2ccc3nn(C([2H])([2H])[2H])cc3c2)cc1F [Compound 100, 6-(2,6-difluoro-4-(2-(methyl-d3)-2H-indazol-5-yl)benzyl)-6,7-dihydro-5H-pyrrolo[3,4-b]pyridin-5-one-7,7-d2] | 0.214 µM | 85% | Inactive | 6% | – |
| [2H]C1([2H])c2ncccc2C(=O)N1Cc1c(F)cc(-c2ccc3c(cnn3C([2H])([2H])[2H])c2)cc1F [Compound 101, 6-(2,6-difluoro-4-(1-(methyl-d3)-1H-indazol-5-yl)benzyl)-6,7-dihydro-5H-pyrrolo[3,4-b]pyridin-5-one-7,7-d2] | 1.41 µM | 75% | Inactive | 3% | – |
| [2H]C1([2H])c2ncccc2C(=O)N1Cc1c(F)cc(-c2ccc(OC(F)F)c3nn(C)cc23)cc1F [Compound 102, 6-(4-(7-(difluoromethoxy)-2-methyl-2H-indazol-4-yl)-2,6-difluorobenzyl)-6,7-dihydro-5H-pyrrolo[3,4-b]pyridin-5-one-7,7-d2] | 0.469 µM | 77% | Inactive | 9% | – |
| [2H]C1([2H])c2ncccc2C(=O)N1Cc1c(F)cc(-c2ccc(OC(F)(F)F)c3nn(C)cc23)cc1F [Compound 103, 6-(2,6-difluoro-4-(2-methyl-7-(trifluoromethoxy)-2H-indazol-4-yl)benzyl)-6,7-dihydro-5H-pyrrolo[3,4-b]pyridin-5-one-7,7-d2] | 1.55 µM | 73% | Inactive | 2% | – |
| [2H]C1([2H])c2ncccc2C(=O)N1Cc1c(F)cc(-c2ccc(OC(F)(F)F)c3nn(C([2H])([2H])[2H])cc23)cc1F [Compound 104, 6-(2,6-difluoro-4-(2-(methyl-d3)-7-(trifluoromethoxy)-2H-indazol-4-yl)benzyl)-6,7-dihydro-5H-pyrrolo[3,4-b]pyridin-5-one-7,7-d2] | 1.17 µM | 69% | Inactive | 2% | – |
